Assay results reported in PMC8854719, “Phase 1A/1B dose-escalation and -expansion study to evaluate the safety, pharmacokinetics, food effects and antitumor activity of pamiparib in advanced solid tumours” (British Journal of Cancer, 2021).

System: advanced solid tumours
Experiment: Tumour response and PFS per RECIST v1.1, overall efficacy-evaluable population
Type: in vivo, human
Settings: for Best overall response: Not evaluable / Best overall response: Partial response / Best overall response: Progressive disease / Best overall response: Stable disease / Clinical benefit rate / Disease control rate / Objective response rate / Best overall response: Complete response / Best overall response: Not assessed: dose escalation
Description: Pamiparib in plasma was measured using a validated liquid chromatography-tandem–mass spectrometry assay with a lower limit of quantification of 1.0 ng/mL. The collection schedule for blood samples used to assess the PK profile is presented in the Supplemental Appendix. Summary PK parameters, including area under the concentration-time curve from time 0 to 9 h (AUC0-9) or infinity (AUC0-inf), maximal plasma concentration (Cmax) and time to maximal plasma concentration (Tmax), were estimated. The pharmacodynamic (PD) activity of pamiparib was explored through the evaluation of poly(ADP-ribose [PAR]) formation in peripheral blood mononuclear cells (PBMCs) after pamiparib administration. The schedule for blood sample collection (PK and PBMCs) and additional assessment information for PAR levels in PBMCs and pharmacodynamic activity is presented in the Supplemental Appendix. Antitumor activity was assessed by radiographic imaging (computed tomography or magnetic resonance imaging) during screening, within 28 days of first pamiparib dose, every 6 weeks in the first 12 months and every 9 weeks thereafter.
Tumour response was evaluated by RECIST v1.1. For patients with ovarian cancer, tumour response was assessed per RECIST v1.1 and by Gynecologic Cancer Intergroup (GCIG) CA-125 criteria. Tumour response for patients with prostate cancer was assessed by Prostate Cancer Clinical Trials Working Group 2 (PCWG2) criteria. Objective response rate (ORR) was defined as the proportion of patients achieving a confirmed complete response (CR) or partial response (PR) on study treatment. Blood tumour antigens (e.g., carcinoembryonic antigen for colorectal cancer, CA-125 for ovarian cancer and prostate-specific antigen [PSA] for mCRPC) were assessed during screening, every 6 weeks after the first pamiparib dose in the first 12 months, and every 9 weeks thereafter.
The safety population comprised all patients in the dose-escalation and dose-expansion phases who received at least one dose of pamiparib (Supplementary Table S2). Patients in the safety analysis set for whom valid pamiparib PK parameters were estimated and for whom evaluable PD results were available represented the PK population and the PD population, respectively. The efficacy-evaluable population included patients in the safety analysis set who had at least one evaluable postbaseline tumour assessment or those who discontinued due to clinical disease progression or early death before tumour assessment could be performed. The EOC efficacy-evaluable population was a subset of the overall efficacy-evaluable population that included patients with EOC from both the dose-escalation and dose-expansion phases. Patients in the dose-expansion phase without measurable disease at baseline per RECIST v1.1 were excluded from the efficacy-evaluable population.
Descriptive statistics were used to summarise all study data (see Supplemental Appendix). Progression-free survival (PFS) and event-free rates were estimated using the Kaplan–Meier method along with the corresponding 95% CI. Pharmacokinetic parameters were derived using standard non-compartmental methods with Phoenix WinNonlin Version 6.4 or higher (Pharsight Corp., Mountain View, California).

[1] = overall efficacy-evaluable population (n=95)

C[C@]12CCCN1CC1=NNC(=O)c3cc(F)cc4[nH]c2c1c34 [pamiparib]
Best overall response: Not evaluable (10 mg BID (n=3)): 0 (0.0) n (%) | Best overall response: Partial response (10 mg BID (n=3)): 0 (0.0) n (%) | Best overall response: Progressive disease (10 mg BID (n=3)): 1 (33.3) n (%) | Best overall response: Stable disease (10 mg BID (n=3)): 2 (66.7) n (%) | Clinical benefit rate (10 mg BID (n=3)): 0.0 (0.00-70.76) % (95% CI) | Disease control rate (10 mg BID (n=3)): 66.7 (9.43-99.16) % (95% CI) | Objective response rate (10 mg BID (n=3)): 0.0 (0.00-70.76) % (95% CI) | Best overall response: Complete response (20 mg BID (n=3)): 1 (33.3) n (%) | Best overall response: Not assessed (20 mg BID (n=3)): 0 (0.0) n (%) | Best overall response: Not evaluable (20 mg BID (n=3)): 0 (0.0) n (%) | Best overall response: Partial response (20 mg BID (n=3)): 1 (33.3) n (%) | Best overall response: Progressive disease (20 mg BID (n=3)): 1 (33.3) n (%) | Best overall response: Stable disease (20 mg BID (n=3)): 0 (0.0) n (%) | Clinical benefit rate (20 mg BID (n=3)): 66.7 (9.43-99.16) % (95% CI) | Disease control rate (20 mg BID (n=3)): 66.7 (9.43-99.16) % (95% CI) | Objective response rate (20 mg BID (n=3)): 66.7 (9.43-99.16) % (95% CI) | Best overall response: Complete response (40 mg BID (n=6)): 0 (0.0) n (%) | Best overall response: Not assessed (40 mg BID (n=6)): 0 (0.0) n (%) | Best overall response: Not evaluable (40 mg BID (n=6)): 0 (0.0) n (%) | Best overall response: Partial response (40 mg BID (n=6)): 2 (33.3) n (%) | Best overall response: Progressive disease (40 mg BID (n=6)): 0 (0.0) n (%) | Best overall response: Stable disease (40 mg BID (n=6)): 4 (66.7) n (%) | Clinical benefit rate (40 mg BID (n=6)): 33.3 (4.33-77.72) % (95% CI) | Disease control rate (40 mg BID (n=6)): 100.0 (54.07-100.00) % (95% CI) | Objective response rate (40 mg BID (n=6)): 33.3 (4.33-77.72) % (95% CI) | Best overall response: Complete response (60 mg BID (n=11)): 1 (9.1) n (%) | Best overall response: Not assessed (60 mg BID (n=11)): 2 (18.2) n (%) | Best overall response: Not evaluable (60 mg BID (n=11)): 0 (0.0) n (%) | Best overall response: Partial response (60 mg BID (n=11)): 0 (0.0) n (%) | Best overall response: Progressive disease (60 mg BID (n=11)): 3 (27.3) n (%) | Best overall response: Stable disease (60 mg BID (n=11)): 5 (45.5) n (%) | Clinical benefit rate (60 mg BID (n=11)): 18.2 (2.28-51.78) % (95% CI) | Disease control rate (60 mg BID (n=11)): 54.5 (23.38-83.25) % (95% CI) | Objective response rate (60 mg BID (n=11)): 9.1 (0.23-41.28) % (95% CI) | Best overall response: Complete response (80 mg BID (n=9)): 1 (11.1) n (%) | Best overall response: Not assessed (80 mg BID (n=9)): 1 (11.1) n (%) | Best overall response: Not evaluable (80 mg BID (n=9)): 0 (0.0) n (%) | Best overall response: Partial response (80 mg BID (n=9)): 1 (11.1) n (%) | Best overall response: Progressive disease (80 mg BID (n=9)): 1 (11.1) n (%) | Best overall response: Stable disease (80 mg BID (n=9)): 5 (55.6) n (%) | Clinical benefit rate (80 mg BID (n=9)): 44.4 (13.70-78.80) % (95% CI) | Disease control rate (80 mg BID (n=9)): 77.8 (39.99-97.19) % (95% CI) | Objective response rate (80 mg BID (n=9)): 22.2 (2.81-60.01) % (95% CI) | Best overall response: Complete response (120 mg BID (n=5)): 0 (0.0) n (%) | Best overall response: Not assessed (120 mg BID (n=5)): 1 (20.0) n (%) | Best overall response: Not evaluable (120 mg BID (n=5)): 1 (20.0) n (%) | Best overall response: Partial response (120 mg BID (n=5)): 1 (20.0) n (%) | Best overall response: Progressive disease (120 mg BID (n=5)): 1 (20.0) n (%) | Best overall response: Stable disease (120 mg BID (n=5)): 1 (20.0) n (%) | Clinical benefit rate (120 mg BID (n=5)): 20.0 (0.51-71.64) % (95% CI) | Disease control rate (120 mg BID (n=5)): 40.0 (5.27-85.34) % (95% CI) | Objective response rate (120 mg BID (n=5)): 20.0 (0.51-71.64) % (95% CI) | Best overall response: Complete response (Total BID (N=44)): 3 (6.8) n (%) | Best overall response: Not assessed (Total BID (N=44)): 7 (15.9) n (%) | Best overall response: Not evaluable (Total BID (N=44)): 1 (2.3) n (%) | Best overall response: Partial response (Total BID (N=44)): 7 (15.9) n (%) | Best overall response: Progressive disease (Total BID (N=44)): 8 (18.2) n (%) | Best overall response: Stable disease (Total BID (N=44)): 18 (40.9) n (%) | Clinical benefit rate (Total BID (N=44)): 29.5 (16.76-45.20) % (95% CI) | Disease control rate (Total BID (N=44)): 63.6 (47.77-77.59) % (95% CI) | Objective response rate (Total BID (N=44)): 22.7 (11.47-37.84) % (95% CI) | Patients who died (efficacy-evaluable patients (N 95), n = 10): 10.5% | Patients who progressed (efficacy-evaluable patients (N 95), n = 50): 52.6% | Patients who died or progressed (efficacy-evaluable patients, 60/95): 63.2% | Confirmed complete responses [1]: 4.2% | Confirmed partial responses [1]: 20% | Confirmed ORR (overall efficacy-evaluable population (n=95), BID and QD): 24.2%
